Measurements reported in patent US6358885B1, “Substituted phenylheterocyclic herbicides” (Mississippi State University, priority 1992, dated 2002).

Tests used:
soybean = assay: Test C preemergence/postemergence greenhouse plant response rating 0 to 100; format: in vivo, Glycine max; details: POSTEMERGENCE; for Plant response rating, Soybean: 0 to 100 scale
How it was run: (§1)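 Compounds in non-phytotoxic solvent applied preemergence to sandy loam one day after planting, postemergence at the 1–4 leaf stage, or to ~2.5 cm floodwater over silt loam.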

velvetleaf = assay: as above; format: in vivo, Abutilon theophrasti; details: POSTEMERGENCE; for Plant response rating, Velvetleaf: 0 to 100 scale
How it was run: as §1

duck salad = assay: Test C flood test plant response rating 0 to 100; format: in vivo, Heteranthera limosa; details: for Plant response rating (0 to 100), Duck salad: under POSTEMERGENCE head (flood test species); for Plant response rating Duck salad: flood test species listed under POSTEMERGENCE, 0 to 100 scale
How it was run: as §1

giant foxtail = assay: Test B preemergence/postemergence greenhouse plant response rating 0 to 10; format: in vivo, Setaria faberii; details: 0 to 10 scale
How it was run: (§2)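 Test chemicals were sprayed onto freshly planted seed and, concurrently, onto young plants between the one and four leaf stage. After a twelve- to sixteen-day greenhouse period, each species was visually compared with untreated controls.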

wild buckwheat [1] = assay: as above; format: in vivo, Polygonum convolvulus; details: 0 to 10 scale
How it was run: as §2

cotton = assay: Test C preemergence/postemergence greenhouse plant response rating 0 to 100; format: in vivo, Gossypium hirsutum; details: POSTEMERGENCE; for Plant response rating, Cotton: 0 to 100 scale
How it was run: as §1

chickweed [2] = assay: Test B preemergence/postemergence greenhouse plant response rating 0 to 10; format: in vivo, Stellaria media; details: 0 to 10 scale
How it was run: as §2

downy brome = assay: Test C preemergence/postemergence greenhouse plant response rating 0 to 100; format: in vivo, Bromus tectorum; details: POSTEMERGENCE; for Plant response rating Downy Brome: 0 to 100 scale
How it was run: as §1

sorghum = assay: Test B preemergence/postemergence greenhouse plant response rating 0 to 10; format: in vivo, Sorghum bicolor; details: 0 to 10 scale
How it was run: as §2

sugar beet = assay: Test C preemergence/postemergence greenhouse plant response rating 0 to 100; format: in vivo, Beta vulgaris; details: POSTEMERGENCE; for Plant response rating, Sugar beet: 0 to 100 scale
How it was run: as §1

barley = assay: as above; format: in vivo, Hordeum vulgare; details: POSTEMERGENCE; for Plant response rating Barley Igri: 0 to 100 scale
How it was run: as §1

cheatgrass = assay: Test B preemergence/postemergence greenhouse plant response rating 0 to 10; format: in vivo, Bromus secalinus; details: 0 to 10 scale
How it was run: as §2

lambsquarters = assay: Test C preemergence/postemergence greenhouse plant response rating 0 to 100; format: in vivo, Chenopodium album; details: POSTEMERGENCE; for Plant response rating Lambsquarters: 0 to 100 scale
How it was run: as §1

chickweed [3] = assay: as above; format: in vivo, Stellaria media; details: POSTEMERGENCE; for Plant response rating, Chickweed: 0 to 100 scale
How it was run: as §1

wild buckwheat [4] = assay: as above; format: in vivo, Polygonum convolvulus; details: POSTEMERGENCE; for Plant response rating, Wild buckwheat: 0 to 100 scale
How it was run: as §1

corn = assay: Test B preemergence/postemergence greenhouse plant response rating 0 to 10; format: in vivo, Zea mays; details: 0 to 10 scale
How it was run: as §2

ryegrass = assay: Test C preemergence/postemergence greenhouse plant response rating 0 to 100; format: in vivo, Lolium multiflorum; details: POSTEMERGENCE; for Plant response rating Ryegrass: 0 to 100 scale
How it was run: as §1

wild oat = assay: Test B preemergence/postemergence greenhouse plant response rating 0 to 10; format: in vivo, Avena fatua; details: 0 to 10 scale
How it was run: as §2

C=CCN1C(=O)COc2cc(F)c(-c3nn4c(c3Br)CCCC4)cc21 [Compound 41]
Plant response rating, Soybean (soybean; 62 g/ha): 70 | Plant response rating, Soybean (soybean; 125 g/ha): 100 | Plant response rating (0 to 100), Soybean (soybean; Rate 16 g/ha): 60 | Plant response rating (0 to 100), Soybean (soybean; Rate 31 g/ha): 70 | Plant response rating, Velvetleaf (velvetleaf; 62 g/ha): 100 | Plant response rating, Velvetleaf (velvetleaf; 125 g/ha): 100 | Plant response rating (0 to 100), Velvetleaf (velvetleaf; Rate 16 g/ha): 100 | Plant response rating (0 to 100), Velvetleaf (velvetleaf; Rate 31 g/ha): 100 | Plant response rating (0 to 100), Duck salad (duck salad; Rate 16 g/ha): 0 | Plant response rating (0 to 100), Duck salad (duck salad; Rate 31 g/ha): 10 | Plant response rating Duck salad (duck salad; 62 g/ha): 30 | Plant response rating Duck salad (duck salad; 125 g/ha): 30 | Plant response rating, Giant foxtail (giant foxtail; POSTEMERGENCE, Rate 50 g/ha): 4 | Plant response rating, Giant foxtail (giant foxtail; PREEMERGENCE, Rate 50 g/ha): 1 | Plant response rating, Giant foxtail (giant foxtail; Rate 200 g/ha, POSTEMERGENCE): 5 | Plant response rating, Giant foxtail (giant foxtail; Rate 200 g/ha, PREEMERGENCE): 3 | Plant response rating, Wild buckwheat (wild buckwheat [1]; POSTEMERGENCE, Rate 50 g/ha): 10 | Plant response rating, Wild buckwheat (wild buckwheat [1]; PREEMERGENCE, Rate 50 g/ha): 10 | Plant response rating, Wild buckwheat (wild buckwheat [1]; Rate 200 g/ha, POSTEMERGENCE): 10 | Plant response rating, Wild buckwheat (wild buckwheat [1]; Rate 200 g/ha, PREEMERGENCE): 10 | Plant response rating, Cotton (cotton; 62 g/ha): 100 | Plant response rating, Cotton (cotton; 125 g/ha): 100 | Plant response rating (0 to 100), Cotton (cotton; Rate 16 g/ha): 100 | Plant response rating (0 to 100), Cotton (cotton; Rate 31 g/ha): 100 | Plant response rating, Chickweed (chickweed [2]; POSTEMERGENCE, Rate 50 g/ha): 10 | Plant response rating, Chickweed (chickweed [2]; POSTEMERGENCE, Rate 200 g/ha): 10 | Plant response rating, Chickweed (chickweed [2]; PREEMERGENCE, Rate 50 g/ha): 10 | Plant response rating, Chickweed (chickweed [2]; Rate 200 g/ha, PREEMERGENCE): 10 | Plant response rating Downy Brome (downy brome; 62 g/ha): 50 | Plant response rating Downy Brome (downy brome; 125 g/ha): 60 | Plant response rating (0 to 100), Downy Brome (downy brome; Rate 16 g/ha): 30 | Plant response rating (0 to 100), Downy Brome (downy brome; Rate 31 g/ha): 40 | Plant response rating, Sorghum (sorghum; POSTEMERGENCE, Rate 50 g/ha): 5 | Plant response rating, Sorghum (sorghum; PREEMERGENCE, Rate 50 g/ha): 0 | Plant response rating, Sorghum (sorghum; Rate 200 g/ha, POSTEMERGENCE): 6 | Plant response rating, Sorghum (sorghum; Rate 200 g/ha, PREEMERGENCE): 1 | Plant response rating, Sugar beet (sugar beet; 62 g/ha): 100 | Plant response rating, Sugar beet (sugar beet; 125 g/ha): 100 | Plant response rating (0 to 100), Sugar beet (sugar beet; Rate 16 g/ha): 100 | Plant response rating (0 to 100), Sugar beet (sugar beet; Rate 31 g/ha): 100 | Plant response rating Barley Igri (barley; 62 g/ha): 50 | Plant response rating Barley Igri (barley; 125 g/ha): 60 | Plant response rating (0 to 100), Barley Igri (barley; Rate 16 g/ha): 30 | Plant response rating (0 to 100), Barley Igri (barley; Rate 31 g/ha): 40 | Plant response rating, Cheatgrass (cheatgrass; POSTEMERGENCE, Rate 50 g/ha): 3 | Plant response rating, Cheatgrass (cheatgrass; POSTEMERGENCE, Rate 200 g/ha): 5 | Plant response rating, Cheatgrass (cheatgrass; PREEMERGENCE, Rate 50 g/ha): 3 | Plant response rating, Cheatgrass (cheatgrass; Rate 200 g/ha, PREEMERGENCE): 5 | Plant response rating Lambsquarters (lambsquarters; 62 g/ha): 100 | Plant response rating Lambsquarters (lambsquarters; 125 g/ha): 100 | Plant response rating (0 to 100), Lambsquarters (lambsquarters; Rate 16 g/ha): 85 | Plant response rating (0 to 100), Lambsquarters (lambsquarters; Rate 31 g/ha): 100 | Plant response rating, Chickweed (chickweed [3]; 62 g/ha): 100 | Plant response rating, Chickweed (chickweed [3]; 125 g/ha): 100 | Plant response rating (0 to 100), Chickweed (chickweed [3]; Rate 16 g/ha): 90 | Plant response rating (0 to 100), Chickweed (chickweed [3]; Rate 31 g/ha): 90 | Plant response rating, Wild buckwheat (wild buckwheat [4]; 62 g/ha): 100 | Plant response rating, Wild buckwheat (wild buckwheat [4]; 125 g/ha): 100 | Plant response rating (0 to 100), Wild buckwheat (wild buckwheat [4]; Rate 16 g/ha): 95 | Plant response rating (0 to 100), Wild buckwheat (wild buckwheat [4]; Rate 31 g/ha): 100 | Plant response rating, Corn (corn; POSTEMERGENCE, Rate 200 g/ha): 5 | Plant response rating, Corn (corn; PREEMERGENCE, Rate 50 g/ha): 0 | Plant response rating, Corn (corn; Rate 200 g/ha, PREEMERGENCE): 2 | Plant response rating Ryegrass (ryegrass; 62 g/ha): 30 | Plant response rating Ryegrass (ryegrass; 125 g/ha): 40 | Plant response rating (0 to 100), Ryegrass (ryegrass; Rate 16 g/ha): 10 | Plant response rating (0 to 100), Ryegrass (ryegrass; Rate 31 g/ha): 20 | Plant response rating, Wild oat (wild oat; POSTEMERGENCE, Rate 50 g/ha): 3 | Plant response rating, Wild oat (wild oat; PREEMERGENCE, Rate 50 g/ha): 2 | Plant response rating, Wild oat (wild oat; Rate 200 g/ha, POSTEMERGENCE): 4
